Laboratory results taken from patent US10206401B2, “Pyridine compounds for controlling invertebrate pests II” (BASF SE, priority 2010, dated 2019).

Experiments:
Assay type in all cases: in vivo
[1] = system: Vetch Aphid (Megoura viciae); test: Vetch aphid, bean leaf disks in microtiterplates; conditions: foliar, 144 h, test solution 2500 mg/L, bean leaf disks sprayed, 6 days
Experimental: II.4 Vetch Aphid (Megoura viciae)
The active compounds were formulated in 1:3 (vol/vol) DMSO:water with different concentrations of formulated compounds.
Bean leaf disks were placed into microtiterplates filled with 0.8% agar-agar and 2.5 ppm OPUS™. The leaf disks were sprayed with 2.5 μl of the test solution and 5 to 8 adult aphids were placed into the microtiterplates which were then closed and kept at 23±1° C. and 50±5% relative humidity under fluorescent light for 6 days. Mortality was assessed on the basis of vital, reproduced aphids. Aphid mortality and fecundity was then visually assessed.

[2] = system: Cotton Aphid (Aphis gossypii, Mixed Life Stages); test: Cotton aphid, method a (cotyledon dip); conditions: 120 h, cotton cotyledons dipped, after 5 days, read-out: mortality in comparison with untreated controls
Description: II.1 Cotton Aphid (Aphis gossypii, Mixed Life Stages)
The active compounds were formulated in 50:50 (vol/vol) acetone:water and 100 ppm Kinetica™ surfactant.
Cotton plants at the cotyledon stage (one plant per pot) were infested by placing a heavily infested leaf from the main colony on top of each cotyledon. The aphids were allowed to transfer to the host plant overnight, and the leaf used to transfer the aphids was removed. The cotyledons were dipped in the test solution and allowed to dry. After 5 days, mortality counts were made.

[3] = system: Cowpea Aphid (Aphis craccivora); test: Cowpea aphid, potted cowpea plants sprayed; conditions: population reduction assessed after 24, 72 and 120 hours, read-out: mortality in comparison with untreated controls
Experimental: II.3 Cowpea Aphid (Aphis craccivora)
The active compounds were formulated in 50:50 (vol/vol) acetone:water. The test solution was prepared at the day of use.
Potted cowpea plants colonized with 100-150 aphids of various stages were sprayed after the pest population had been recorded. Population reduction was assesed after 24, 72, and 120 hours.

SMILES: Cc1c(C(=O)Nc2cccnc2)nnn1Cc1ccccc1 [Example 2, 1-Benzyl-5-methyl-1H-[1,2,3]triazole-4-carboxylic acid pyridin-3-ylamide]
- mortality at 2500 µg/mL [1]: ≥ 90%
- mortality at 300 ppm [2]: ≥ 75%
- mortality at 300 ppm [3]: ≥ 90%
